PubChem BioAssay (NCI)
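Cultured in 96-well plates, cells were exposed to test compound for 48 hours across five concentrations. GI50 marks 50% less growth. The concentration for full growth arrest is given as TGI.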

Assays:
Test in all cases: NCI tumour cell line growth inhibition, 48 h
LOX IMVI melanoma = test system: LOX IMVI melanoma
SF-268 CNS = test system: SF-268 CNS
SW-620 colon = test system: SW-620 colon
SF-539 CNS = test system: SF-539 CNS
TK-10 renal = test system: TK-10 renal
UACC-62 melanoma = test system: UACC-62 melanoma
OVCAR-5 ovarian = test system: OVCAR-5 ovarian
HT29 colon = test system: HT29 colon
MOLT-4 leukemia = test system: MOLT-4 leukemia
HOP-92 NSCLC = test system: HOP-92 NSCLC

Compound `CC(=O)Nc1ccc(C2[C@H]3C(=O)N(c4ccc(Cc5ccc(N6C(=O)[C@@H]7ON(c8ccccc8)C(c8ccc(NC(C)=O)cc8)[C@@H]7C6=O)cc5)cc4)C(=O)[C@H]3ON2c2ccccc2)cc1` (some centres not stated) has a TGI (LOX IMVI melanoma) greater than 100 µM, a TGI (SF-268 CNS) greater than 100 µM and a TGI (SW-620 colon) greater than 100 µM. The TGI (SF-539 CNS) was greater than 100 µM, the TGI (TK-10 renal) was greater than 100 µM and the TGI (UACC-62 melanoma) was greater than 100 µM. It also gave a TGI (OVCAR-5 ovarian) greater than 100 µM, a TGI (HT29 colon) greater than 100 µM and a TGI (MOLT-4 leukemia) greater than 100 µM.
`COC(=O)c1ccc(N=NN(C)CO)cc1` was tested, and the TGI (LOX IMVI melanoma) was greater than 100 µM, the TGI (SW-620 colon) was greater than 100 µM and the TGI (SF-539 CNS) was greater than 100 µM. For the same compound, the TGI (TK-10 renal) was greater than 100 µM, the TGI (UACC-62 melanoma) was greater than 100 µM and the TGI (OVCAR-5 ovarian) was greater than 100 µM. For the same compound, the TGI (HT29 colon) was greater than 100 µM and the TGI (MOLT-4 leukemia) was greater than 100 µM.
Work on `Cn1c(=O)c2[nH]c(CS(=O)(=O)Cc3nc4c([nH]3)c(=O)n(C)c(=O)n4C)nc2n(C)c1=O` yielded a TGI (LOX IMVI melanoma) greater than 100 µM, a TGI (SF-268 CNS) greater than 100 µM and a TGI (SW-620 colon) greater than 100 µM. For the same compound, the TGI (SF-539 CNS) was greater than 100 µM, the TGI (TK-10 renal) was greater than 100 µM and the TGI (UACC-62 melanoma) was greater than 100 µM. The TGI (OVCAR-5 ovarian) was greater than 100 µM, the TGI (HT29 colon) was greater than 100 µM and the TGI (MOLT-4 leukemia) was greater than 100 µM.
`CC(=O)OC(C)(C)/C=C/C(=O)[C@](C)(O)[C@H]1[C@H](O)C[C@@]2(C)[C@@H]3CC=C4[C@@H](C[C@H](O)C(=O)C4(C)C)[C@]3(C)C(=O)C[C@]12C` gave a TGI (LOX IMVI melanoma) of less than 0.01 µM, a TGI (SF-268 CNS) of less than 0.01 µM and a TGI (SW-620 colon) of 7.54 µM. For the same compound, the TGI (SF-539 CNS) was less than 0.01 µM, the TGI (TK-10 renal) was less than 0.01 µM and the TGI (UACC-62 melanoma) was 2.17 µM. It also gave a TGI (OVCAR-5 ovarian) of 13.8 µM and a TGI (MOLT-4 leukemia) of 2.78 µM.
Compound `O=C([CH-]C(=O)c1ccccc1)c1ccccc1.O=C([CH-]C(=O)c1ccccc1)c1ccccc1.[Nd+3].[OH-].[OH3+]` has a GI50 (SF-268 CNS) of 6.51 µM, a TGI (SF-268 CNS) of 34.9 µM and a GI50 (SW-620 colon) of 6.89 µM. It also gave a TGI (SW-620 colon) of 39.8 µM, a GI50 (SF-539 CNS) of 15.8 µM and a TGI (SF-539 CNS) of 48 µM. It also gave a GI50 (TK-10 renal) of 26.4 µM, a TGI (TK-10 renal) greater than 100 µM and a GI50 (UACC-62 melanoma) of 4.76 µM. For the same compound, the TGI (UACC-62 melanoma) was 22.2 µM, the GI50 (OVCAR-5 ovarian) was 22.3 µM and the TGI (OVCAR-5 ovarian) was 81.5 µM. The GI50 (HT29 colon) was 8.8 µM, the TGI (HT29 colon) was 26.2 µM and the GI50 (MOLT-4 leukemia) was 3.88 µM. For the same compound, the TGI (MOLT-4 leukemia) was 33.1 µM, the GI50 (HOP-92 NSCLC) was 13.6 µM and the TGI (HOP-92 NSCLC) was 39.7 µM.
For `CC1(C)N=C(N)N=C(N)N1c1cc(Cl)ccc1Cl`, the GI50 (LOX IMVI melanoma) was greater than 100 µM, the TGI (LOX IMVI melanoma) was greater than 100 µM and the GI50 (SF-268 CNS) was greater than 100 µM. The TGI (SF-268 CNS) was greater than 100 µM, the GI50 (SW-620 colon) was 74.5 µM and the TGI (SW-620 colon) was greater than 100 µM. It also gave a GI50 (SF-539 CNS) greater than 100 µM, a TGI (SF-539 CNS) greater than 100 µM and a GI50 (TK-10 renal) greater than 100 µM. The TGI (TK-10 renal) was greater than 100 µM, the GI50 (UACC-62 melanoma) was greater than 100 µM and the TGI (UACC-62 melanoma) was greater than 100 µM. The GI50 (OVCAR-5 ovarian) was greater than 100 µM, the TGI (OVCAR-5 ovarian) was greater than 100 µM and the GI50 (HT29 colon) was 62.5 µM. It also gave a TGI (HT29 colon) greater than 100 µM, a GI50 (MOLT-4 leukemia) greater than 100 µM and a TGI (MOLT-4 leukemia) greater than 100 µM.
`C[C@]12CC[C@@H]3c4ccc(O)cc4CC[C@H]3[C@@H]1CC[C@@H]2NS(=O)(=O)Cc1ccc(Cl)cc1` gave a GI50 (SF-268 CNS) of 3.16 µM, a TGI (SF-268 CNS) of 12.5 µM and a GI50 (SW-620 colon) of 3.5 µM. For the same compound, the TGI (SW-620 colon) was 17.3 µM, the GI50 (SF-539 CNS) was 1.88 µM and the TGI (SF-539 CNS) was 4.39 µM. For the same compound, the GI50 (TK-10 renal) was 3.5 µM, the TGI (TK-10 renal) was 14.9 µM and the GI50 (UACC-62 melanoma) was 1.92 µM. The TGI (UACC-62 melanoma) was 4.56 µM, the GI50 (OVCAR-5 ovarian) was 3.76 µM and the TGI (OVCAR-5 ovarian) was 14.2 µM. The GI50 (HT29 colon) was 3.34 µM, the TGI (HT29 colon) was 10.8 µM and the GI50 (MOLT-4 leukemia) was 2.62 µM. For the same compound, the TGI (MOLT-4 leukemia) was 31.3 µM, the GI50 (HOP-92 NSCLC) was 2.13 µM and the TGI (HOP-92 NSCLC) was 7.24 µM.
For `O=[N+]([O-])/C=C/c1c[nH]c2ccccc12`, the GI50 (LOX IMVI melanoma) was 15.9 µM, the TGI (LOX IMVI melanoma) was 30.2 µM and the GI50 (SF-268 CNS) was 16 µM. It also gave a TGI (SF-268 CNS) of 40.5 µM, a GI50 (SW-620 colon) of 15.2 µM and a TGI (SW-620 colon) of 57.5 µM. The GI50 (SF-539 CNS) was 15.4 µM, the TGI (SF-539 CNS) was 35.6 µM and the GI50 (TK-10 renal) was 16.8 µM. It also gave a TGI (TK-10 renal) of 30.7 µM, a GI50 (UACC-62 melanoma) of 17.4 µM and a TGI (UACC-62 melanoma) of 32.3 µM. For the same compound, the GI50 (OVCAR-5 ovarian) was 17.8 µM, the TGI (OVCAR-5 ovarian) was 35.2 µM and the GI50 (HT29 colon) was 19.5 µM. The TGI (HT29 colon) was 38.8 µM, the GI50 (MOLT-4 leukemia) was 13.9 µM and the TGI (MOLT-4 leukemia) was 35.5 µM.
Work on `COC(=O)Nc1nc2ccccc2c(=O)[nH]1` yielded a TGI (SF-268 CNS) greater than 100 µM, a TGI (SW-620 colon) greater than 100 µM and a TGI (SF-539 CNS) greater than 100 µM. For the same compound, the TGI (TK-10 renal) was greater than 100 µM, the TGI (UACC-62 melanoma) was greater than 100 µM and the TGI (OVCAR-5 ovarian) was greater than 100 µM. For the same compound, the TGI (HT29 colon) was greater than 100 µM and the TGI (MOLT-4 leukemia) was greater than 100 µM.
With `Cc1c2cc[nH]c(=O)c2cc2c(=O)c3cnccc3[nH]c12` the TGI (LOX IMVI melanoma) was greater than 100 µM, the TGI (SF-268 CNS) was greater than 100 µM and the TGI (SW-620 colon) was greater than 100 µM. The TGI (TK-10 renal) was greater than 100 µM, the TGI (UACC-62 melanoma) was greater than 100 µM and the TGI (OVCAR-5 ovarian) was greater than 100 µM. It also gave a TGI (HT29 colon) greater than 100 µM, a TGI (MOLT-4 leukemia) greater than 100 µM and a TGI (HOP-92 NSCLC) greater than 100 µM.
`CC(C(=O)Oc1ccc2ccccc2c1-c1c(O)ccc2ccccc12)c1ccccc1` (configuration not stated) was tested, and the TGI (SW-620 colon) was 31.8 µM, the TGI (SF-539 CNS) was 33.9 µM and the TGI (TK-10 renal) was 32.8 µM. For the same compound, the TGI (UACC-62 melanoma) was 27 µM, the TGI (OVCAR-5 ovarian) was 31 µM and the TGI (HT29 colon) was 28.8 µM. For the same compound, the TGI (MOLT-4 leukemia) was 44.8 µM and the TGI (HOP-92 NSCLC) was 23.5 µM.
Compound `COC(=O)C(Nc1ccc(OC)cc1)c1ccccc1` (configuration not stated) has a TGI (LOX IMVI melanoma) greater than 100 µM, a TGI (SF-268 CNS) greater than 100 µM and a TGI (SW-620 colon) greater than 100 µM. It also gave a TGI (SF-539 CNS) greater than 100 µM, a TGI (TK-10 renal) greater than 100 µM and a TGI (UACC-62 melanoma) greater than 100 µM. For the same compound, the TGI (OVCAR-5 ovarian) was greater than 100 µM, the TGI (HT29 colon) was greater than 100 µM and the TGI (MOLT-4 leukemia) was greater than 100 µM.
`CCN(CC)CCCCCCCNc1c2ccc(Cl)cc2nc2ccc(OC)cc12` showed a GI50 (LOX IMVI melanoma) of 0.275 µM, a TGI (LOX IMVI melanoma) of 1.17 µM and a GI50 (SF-268 CNS) of 1.03 µM. It also gave a TGI (SF-268 CNS) of 2.5 µM, a GI50 (SW-620 colon) of 0.376 µM and a TGI (SW-620 colon) of 1.64 µM. It also gave a GI50 (TK-10 renal) of 0.991 µM, a TGI (TK-10 renal) of 4.08 µM and a GI50 (UACC-62 melanoma) of 2.04 µM. It also gave a TGI (UACC-62 melanoma) of 4.09 µM, a GI50 (OVCAR-5 ovarian) of 1.78 µM and a TGI (OVCAR-5 ovarian) of 7.55 µM. The GI50 (HT29 colon) was 0.203 µM, the TGI (HT29 colon) was 0.604 µM and the GI50 (MOLT-4 leukemia) was 0.372 µM. The TGI (MOLT-4 leukemia) was 2.32 µM, the GI50 (HOP-92 NSCLC) was 1.29 µM and the TGI (HOP-92 NSCLC) was 3.45 µM.
In the case of `COc1ccc(-c2nc(-c3ccccc3)c(-c3ccccc3)n2C2CC2)cc1OC1CCCC1`, the GI50 (LOX IMVI melanoma) is reported as 15.1 µM, the TGI (LOX IMVI melanoma) is reported as greater than 165 µM and the GI50 (SF-268 CNS) is reported as 44.9 µM. The TGI (SF-268 CNS) was greater than 165 µM, the GI50 (SW-620 colon) was 53.7 µM and the TGI (SW-620 colon) was greater than 165 µM. It also gave a GI50 (SF-539 CNS) of 90.9 µM, a TGI (SF-539 CNS) greater than 165 µM and a GI50 (OVCAR-5 ovarian) greater than 165 µM. It also gave a TGI (OVCAR-5 ovarian) greater than 165 µM, a GI50 (HT29 colon) of 85.1 µM and a TGI (HT29 colon) greater than 165 µM. For the same compound, the GI50 (MOLT-4 leukemia) was 45.7 µM and the TGI (MOLT-4 leukemia) was greater than 165 µM.
